Source: the NIST ThermoML archive (doi:10.1016/j.tca.2007.07.002)

Test: mn = molality of the nth substance listed, in mol/kg
Conditions: 298.15 K, 101 kPa, Liquid, Vibrating tube method

CCCC(N)=O [butanamide] + O
Conditions	mass density [kg/m3]
m1 = 0.2015	997.019
m1 = 0.3122	997.028
m1 = 0.4106	997.052
m1 = 0.5053	997.083
m1 = 0.628	997.117
m1 = 0.7131	997.16
m1 = 0.827	997.21
m1 = 0.9204	997.269
